Experimental data reported in patent US7912651B2, “Function homology screening” (BioSeek LLC, priority 2000, dated 2011).
Entries after “also recorded” stand apart in the source; their conditions may differ.

Experiments:
TNF-R1 (p55) = TNF-R1 (p55) morpholino antisense in HUVEC, flow cytometry; format: cell-based, human; details: 4 hours
Text: Morpholino phosphorodiamidate (MF) antisense oligonucleotides are used. Other chemical classes of antisense oligonucleotides that can be substituted for morpholinos include but are not limited to phosphorotioate oligonucleotides, N3′-P5′ phosphoramidate oligonucleotides (NP), locked nucleic acid (LNA), 2′-O-methoxyethyl nucleic acid (MOE), 2′-fluoro-arabinonucleic acid (FANA), peptide nucleic acids (PNA) (reviewed in Toulme, Nature Biotech. 19:17, 2001). In the example in FIG. 18, antisense oligonucleotides for TNF-R1 (p55) (5′-[…]-3′)(SEQ ID NO:1), and the beta-globin control oligo (5′-[…]-3′)(SEQ ID NO:2) (Gene Tools Inc.) are used. The transfection mixture is prepared by mixing […] of stock morpholino (0.5 mM), […], and 4 ml of 200 mM EPEI (Ethoxylated PolyEthylenimine), vortexed, incubated at room temperature for 20 minutes, and then mixed with 3.5 ml of serum-free media to give a final 0.6 μM morpholino concentration. HUVEC cells are plated the day before in 24-well plates at 4-6×10e4 cells/well. Cells are washed once with serum-free media and incubated with 0.4 ml of the morpholino transfection mixture at 37° C. for 3 hours. Morpholino is removed, regular media (Epithelial Growth Media with 2% fetal calf serum, Clonetics) is added and cells allowed to recover overnight. The efficiency of loading of cells with morphino is monitored in cells incubated with a fluorescent morpholino, and is typically essentially 100 percent. HUVEC cells are then treated with either TNF-α (0.5 ng/ml), or IL-1 (1 ng/ml), or media only. After 4 hours, cells are harvested and evaluated for the cell surface expression of ICAM-1 (1), VCAM-1 (2), E-selectin (3), and CD31 (4) by flow cytometry. […] The TNF-R1 antisense specifically blocks induction of ICAM-1 and VCAM-1 by TNF-α, while it has no effect on induction of the same markers by the independent cell surface receptor for IL-1.

HUVEC cells [1] = assay: Optimized inflammatory assay combination: HUVEC treated with IL-1+TNF-α+IFN-γ, readout parameters by cell-based ELISA; set-up: species or system human; details: for activity (altered biomap) in the optimized assay combination: HUVEC, TNF-α (5 ng/ml)+IFN-γ (100 ng/ml)+IL-1, 24 hours
Experimental: Primary human umbilical vein endothelial cells (HUVEC) are used. Other cells that may replace HUVEC in the screen include primary microvascular endothelial cells, aortic or arteriolar endothelial cells or endothelial cell lines such as EAhy926 or E6-E7 4-5-2G cells or human telomerase reverse transcriptase-expressing endothelial cells (Simmons, J. Immunol., 148:267, 1992; Rhim, Carcinogenesis 19:673, 1998; Yang, J. Biol. Chem. 274:26141, 1999). 2×10^4 cells/ml are cultured to confluence in EGM-2 (Clonetics). Other media that may replace EGM-2 include EGM (Clonetics) and Ham's F12K medium supplemented with 0.1 mg/ml heparin and 0.03-0.05 mg/ml endothelial cell growth supplement (ECGS) and 10% FBS, or medium M199 (Life Technologies, Inc.) containing 20% fetal bovine serum and 2 ng/ml basic fibroblast growth factor (Jaffe, J. Clin. Invest. 52:2745, 1973; Hoshi, PNAS 81:6413, 1984). The disease environment present in chronic inflammatory diseases, such as Crohn's disease, differs from the normal condition by increased presence of multiple biologically active agents including IL-1, TNF-α, and IFN-γ (Woywodt, 1994; Kakazu, 1999). Other biologically active agents that may be increased in chronic inflammatory disease environments include IL-4, IL-6, IL-8, IL-12, IL-13, IL-18, TGFbeta, and histamine, as well as activated leukocytes and their products (Daig, 1996, Gut 38:216; Woywodt, 1994, Eur. cytokine Netw. 5:387; Kakazu, 1999 Am J. Gastroenterol. 94:2149; Pizarro, 1999, J. Immunol. 162:6829; Monteleone, 1999, J. Immunol. 163:143; […] Enteral Nutr 23:S20; Beck, 1999, […]. Bowel Dis. 5:44). Optimized assay combinations will contain at least two, and preferably three, four or more of these biologically active agents. Concentrations of agents are standard according to the literature, typically at physiologic concentrations. Concentrations may also be determined experimentally as the amount required to saturate the relevant receptor. A useful feature of the present invention is that combinatorial effects of multiple factors are observed over wide ranges of factor concentrations. Based on the factors included in an assay combination, a set of parameters for including in a biomap are selected. The experiments provided in FIG. 1A-1C illustrate the usefulness of the present invention in compound screening applications. […] After 24 hours, cultures are washed and evaluated for the presence of the parameters ICAM-1 (1), VCAM-1 (2), E-selectin (3), IL-8 (4), CD31 (5), HLA-DR (6) and MIG (7) by cell-based ELISA as described (Melrose, J. Immunol. 161:2457, 1998). For this, plates are blocked with 1% Blotto for 1 hr, and treated with primary antibodies (obtained from Pharmingen and Becton Dickinson) at 1 ng/ml for 2 hr. After washing, secondary peroxidase-conjugated anti-mouse IgG antibody (Promega) at 1:2500 is applied for 45 min. After washing, TMB substrate (Kierkegaard & Perry) is added and color developed. Development is stopped by addition of H2SO4 and the absorbance at 450 nm (subtracting the background absorbance at 600 nm) is read with a Molecular Dynamics plate reader. The relative expression levels of each parameter are indicated by the OD at 450 nm shown along the y-axis. The mean+/-SD from triplicate samples is shown. The assay combinations shown in FIG. 1 are useful in screening compounds that modulate TNF-α, IL-1 and IFN-γ signaling pathways, however, compounds must be evaluated separately in all three assay combinations to identify compounds that selectively modulate one or more of these pathways. In addition, compounds that selectively modulate combinatorial effects of these pathways cannot be distinguished. […] Confluent cultures of HUVEC cells are treated with TNF-α (5 ng/ml)+IFN-γ (100 ng/ml)+IL-1 (1 ng/ml) in the presence or absence of neutralizing anti-TNF-α or control antibody (Goat anti-IgG). […] In FIG. 3A, the relative expression of each parameter is shown along the y-axis as average value of the OD measured at 450 nm of triplicate samples. […]

HUVEC cells [2] = assay: Lactate dehydrogenase (LDH) in HUVEC culture supernatants, CytoTox96 assay; format: cell-based, human; details: endothelial cell cultures
Experimental: Effect of over-expression of bcl-2 and bcl-xl proteins on a panel of assay combinations. HUVEC cells were transduced with either Bcl-2, Bcl-xL or control empty vector (control). Confluent cultures were treated with either ceramide (10 μm), TNF-α (5 ng/ml), ceramide (10 μm)+TNF-α (5 ng/ml), or media only. After 24 hours, cells were washed and evaluated for the surface expression of ICAM-1 (1), VCAM-1 (2), and MIG (3) by cell-based ELISA performed as described in FIG. 1. Cell supernatants were collected and analyzed for the presence of lactate dehydrogenase LDH (4) by CytoTox96 assay (Promega).
A panel of assay combinations that reproduces aspects of the response of the endothelial cells to inflammatory processes and stimuli enhancing apoptosis is used. […] Endothelial cells cultured under basal conditions display a low level of cell damage as measured by release of cytoplasmic lactate dehydrogenase from cells into the supernatant.

HUVEC cells [3] = assay: HUVEC in basal medium cultured with factor or agent for 24 hours, cell-based ELISA; set-up: species or system human; details: HUVEC cultured with the factor/agent for 24 hours, vs basal medium
Experimental: After 24 hours, cultures are washed and evaluated for the presence of the parameters ICAM-1 (1), VCAM-1 (2), E-selectin (3), IL-8 (4), CD31 (5), HLA-DR (6) and MIG (7) by cell-based ELISA as described (Melrose, J. Immunol. 161:2457, 1998). For this, plates are blocked with 1% Blotto for 1 hr, and treated with primary antibodies (obtained from Pharmingen and Becton Dickinson) at 1 ng/ml for 2 hr. After washing, secondary peroxidase-conjugated anti-mouse IgG antibody (Promega) at 1:2500 is applied for 45 min. After washing, TMB substrate (Kierkegaard & Perry) is added and color developed. Development is stopped by addition of H2SO4 and the absorbance at 450 nm (subtracting the background absorbance at 600 nm) is read with a Molecular Dynamics plate reader. The relative expression levels of each parameter are indicated by the OD at 450 nm shown along the y-axis. The mean+/−SD from triplicate samples is shown.
After 24 hours, cultures are washed and evaluated for the presence of the parameters ICAM-1 (1), VCAM-1 (2), E-selectin (3), IL-8 (4), CD31 (5), HLA-DR (6) and MIG (7) by cell-based ELISA performed as described in FIG. 1 and are reported as the OD at 450 nm in FIG. 2. The mean+/−SD from triplicate samples are shown. * indicates p<0.05 comparing results obtained with the two separate conditions.
After 24 hours, cultures are washed and evaluated for the presence of the parameters ICAM-1 (1), VCAM-1 (2), E-selectin (3), IL-8 (4), CD31 (5), HLA-DR (6) and MIG (7) by cell-based ELISA performed as described in FIG. 1 and are reported as the OD at 450 nm. The mean+/−SD from triplicate samples are shown. * indicates p<0.05 comparing results obtained with the two separate conditions.

HUVEC cells [4] = assay: HUVEC assay combinations with single pathway activators (TNF-α, IL-1, IFN-γ or activating antibody to p55), biomaps by cell-based ELISA; set-up: species or system human
Experimental: Confluent cultures of HUVEC cells are treated with TNF-α (5 ng/ml), IFN-γ (100 ng/ml), IL-1 (20 ng/ml), the combination of TNF-α+IFN-γ+IL-1, or media in the presence or absence of Act-anti-p55. After 24 hours, cultures are washed and evaluated for the cell surface expression of ICAM-1 (1), VCAM-1 (2), E-selectin (3), IL-8 (4), and MIG (5) by cell-based ELISA performed as described in FIG. 1. A color-coded representation of the resulting biomaps prepared from the data is shown in FIG. 8, coded as described in FIG. 2B. […]

Question: Which “biomap versus control oligo upon treatment with TNF-α” value (TNF-R1 (p55); 0.6 μM morpholino, TNF-α (0.5 ng/ml)) does the source give for “5′-AGGTCAGGCACGGTGGAGAGGC-3′ (all phosphorodiamidate morpholino (PMO)) [TNF-R1 antisense]” here?
Answer: altered biomap

Question: And the “induction of ICAM-1 by IL-1” value (TNF-R1 (p55); IL-1 (1 ng/ml))?
Answer: no effect

Question: What about the “induction of VCAM-1 by IL-1” value (TNF-R1 (p55); IL-1 (1 ng/ml)) of the same molecule?
Answer: no effect

Question: And the “induction of ICAM-1 by TNF-α” value (TNF-R1 (p55); TNF-α (0.5 ng/ml))?
Answer: blocks

Question: What about the “induction of VCAM-1 by TNF-α” value (TNF-R1 (p55); TNF-α (0.5 ng/ml)) of the same molecule?
Answer: blocks

Question: For `N#CC(C#N)=Cc1ccc([N+](=O)[O-])c(O)c1` [AG126], which “activity (altered biomap) in the optimized assay combination” value (“activity (altered biomap)” for short) (HUVEC cells [1]) is on record?
Answer: active compounds

Question: With `CC(Cc1ccc(O)c(O)c1)C(C)Cc1ccc(O)c(O)c1` (stereo not shown) [NHGA, nordihydroguaiaretic acid] as the molecule, how does the “activity (altered biomap)” value (HUVEC cells [1]) read?
Answer: altered biomaps

Question: How did the “activity (altered biomap)” value (HUVEC cells [1]) turn out when `COc1cccc(-c2cc(=O)c3ccccc3o2)c1N` [PD098059] was run?
Answer: altered biomaps

Question: For `S=C(S)N1CCCC1` [PDTC, pyrrolidine dithiocarbamate], which “activity (altered biomap)” value (HUVEC cells [1]) is on record?
Answer: altered biomaps

Question: Which results are given for `O=C(NC1=CC(=O)c2ccccc2C1=O)c1ccccc1` [PPM-18]?
Answer: cellular toxicity at higher concentrations (2-fold) when tested alone (HUVEC cells [1]; 2-fold above PPM-18 2 μM / AG126 25 μM): cellular toxicity; activity (altered biomap) in the optimized assay combination (HUVEC cells [1]): active compounds

Question: Which “release of cytoplasmic lactate dehydrogenase into the supernatant (cell damage) vs basal conditions” value (HUVEC cells [2]) does the source give for ceramide here?
Answer: enhanced

B1: IFN-γ: cytokine used as factor (protein)
chain: QDPYVKEAENLKKYFNAGHSDVADNGTLFLGILKNWKEESDRKIMQSQIVSFYFKLFKNFKDDQSIQKSVETIKEDMNVKFFNSNKKKRDDFEKLTNYSVTDLNVQRKAIHELIQVMAELSPAAKTGKRKRSQMLFRGRRASQ
Question: How did the “level of HLA-DR” value (HUVEC cells [3]) turn out when B1 was run?
Answer: increased

Question: And the “level of ICAM-1” value (HUVEC cells [3])?
Answer: increased

Question: What about the “level of MIG” value (HUVEC cells [3]) of the same molecule?
Answer: increased

B2: p55-Fc: recombinant fusion protein containing the extracellular domains of the p55 TNF-α-receptor fused to immunoglobulin Fc domain (protein)
chain: LVPHLGDREKRDSVCPQGKYIHPQNNSICCTKCHKGTYLYNDCPGPGQDTDCRECESGSFTASENHLRHCLSCSKCRKEMGQVEISSCTVDRDTVCGCRKNQYRHYWSENLFQCFNCSLCLNGTVHLSCQEKQNTVCTCHAGFFLRENECVSCSNCKKSLECTKLCLPQIENVKGTEDSGTT
modifications: left off: a dimerising Fc or GST
notes: recombinant fusion protein containing the extracellular domains of the p55 TNF-α-receptor fused to immunoglobulin Fc domain
Question: Which results are given for B2?
Answer: activity (altered biomap) in the optimized assay combination (HUVEC cells [1]): active compound; biomap of cultures containing activating antibody to TNF-α-receptor p55: sensitivity to the agent (HUVEC cells [4]; Act-anti-p55, 24 hours): is sensitive; also recorded: alters; biomap of the assay combination containing IL-1 alone: sensitivity to the agent (HUVEC cells [4]; IL-1, 24 hours): not sensitive; biomap of the assay combination containing TNF-α alone: sensitivity to the agent (HUVEC cells [4]; TNF-α (5 ng/ml), 24 hours): altered; also recorded: is sensitive
